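Cells were grown in 96-well plates and exposed to each compound for 48 hours at five concentrations; endpoints were interpolated linearly between bracketing concentrations, or set to the highest concentration if not reached. TGI marks complete inhibition of growth.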
Columns and labels:
Experiment in all cases: NCI tumour cell line growth inhibition, 48 h
[1] = system: KM12 colon
[2] = system: RPMI-8226 leukemia
[3] = system: MALME-3M melanoma
[4] = system: MCF7 breast
[5] = system: A498 renal
[6] = system: MDA-N
[7] = system: 786-0 renal
[8] = system: OVCAR-8 ovarian
[9] = system: HOP-62 NSCLC
[10] = system: K-562 leukemia
[11] = system: SR leukemia
[12] = system: HS 578T breast
[13] = system: COLO 205 colon
[14] = system: HL-60(TB) leukemia
[15] = system: HCT-116 colon
[16] = system: NCI/ADR-RES ovarian
[17] = system: SK-MEL-2 melanoma
[18] = system: SF-295 CNS
[19] = system: HT29 colon
[20] = system: SNB-75 CNS
[21] = system: PC-3 prostate
[22] = system: LOX IMVI melanoma
[23] = system: EKVX NSCLC
[24] = system: T-47D breast
[25] = system: A549 NSCLC
[26] = system: HCC-2998 colon
[27] = system: SK-MEL-28 melanoma
[28] = system: DU-145 prostate
[29] = system: NCI-H23 lung
[30] = system: OVCAR-4 ovarian
[31] = system: ACHN renal
[32] = system: RXF 393 renal
[33] = system: SK-OV-3 ovarian
[34] = system: UACC-257 melanoma
[35] = system: OVCAR-3 ovarian
[36] = system: CAKI-1 renal
[37] = system: HOP-92 NSCLC
[38] = system: NCI-H522 lung
[39] = system: BT-549 breast
[40] = system: UACC-62 melanoma
[41] = system: MDA-MB-435
[42] = system: SK-MEL-5 melanoma
[43] = system: SN12C renal
[44] = system: UO-31 renal
[45] = system: SW-620 colon
[46] = system: IGROV1 ovarian
[47] = system: TK-10 renal
[48] = system: MDA-MB-231 breast
[49] = system: CCRF-CEM leukemia
[50] = system: HCT-15 colon
[51] = system: NCI-H460 lung
[52] = system: MOLT-4 leukemia
[53] = system: OVCAR-5 ovarian
[54] = system: SF-268 CNS
[55] = system: M14 melanoma
[56] = system: SF-539 CNS
[57] = system: SNB-19 CNS
[58] = system: U251 CNS
[59] = system: NCI-H226 lung
[60] = system: HOP-18 NSCLC
[61] = system: KM20L2 colon
[62] = system: SNB-78 CNS
[63] = system: DLD-1 colon
[64] = system: LXFL 529 NSCLC
[65] = system: DMS 114 small cell lung

CCC1C(c2cc(OC)c(OC)c(OC)c2)c2cc3c(cc2OC1N1CCCC1)OCO3 (stereo not given)
TGI [1]: 22 µM | TGI [2]: 26.2 µM | TGI [3]: 40.3 µM | TGI [4]: 13.7 µM | TGI [5]: 14 µM | TGI [6]: 0.795 µM | TGI [7]: 22.2 µM | TGI [8]: 23.9 µM | TGI [9]: 15.9 µM | TGI [10]: 8.62 µM | TGI [11]: > 47.6 µM | TGI [12]: 14.1 µM | TGI [13]: 12.1 µM | TGI [14]: > 23.3 µM | TGI [15]: 11.5 µM | TGI [16]: 7.03 µM | TGI [17]: 13 µM | TGI [18]: 8.25 µM | TGI [19]: 10.9 µM | TGI [20]: 31.4 µM | TGI [21]: > 37.6 µM | TGI [22]: 22 µM | TGI [23]: 59.8 µM | TGI [24]: 41.9 µM | TGI [25]: 20.2 µM | TGI [26]: 8.16 µM | TGI [27]: 60.6 µM | TGI [28]: 14.6 µM | TGI [29]: 39 µM | TGI [30]: > 76 µM | TGI [31]: 26.6 µM | TGI [32]: 9.31 µM | TGI [33]: 26.6 µM | TGI [34]: 55.6 µM | TGI [35]: 8.53 µM | TGI [36]: 9.8 µM | TGI [37]: 21.3 µM | TGI [38]: 10.1 µM | TGI [39]: 49.4 µM | TGI [40]: 23.4 µM | TGI [41]: 1.07 µM | TGI [42]: 12.5 µM | TGI [43]: 31.8 µM | TGI [44]: 23.1 µM | TGI [45]: 45.4 µM | TGI [46]: 17.8 µM | TGI [47]: 40.3 µM | TGI [48]: 20.5 µM | TGI [49]: 11.9 µM | TGI [50]: 27.2 µM | TGI [51]: 12.4 µM | TGI [52]: 22.8 µM | TGI [53]: 57.4 µM | TGI [54]: 33 µM | TGI [55]: 26.6 µM | TGI [56]: 5.53 µM | TGI [57]: 24 µM | TGI [58]: 11.7 µM | TGI [59]: 8.78 µM

CN(C)c1nc(=Nc2ccc3ccccc3c2)ss1
TGI [1]: > 100 µM | TGI [2]: 52.5 µM | TGI [3]: > 100 µM | TGI [5]: > 100 µM | TGI [7]: > 100 µM | TGI [8]: > 100 µM | TGI [9]: > 100 µM | TGI [60]: > 100 µM | TGI [10]: > 100 µM | TGI [61]: > 100 µM | TGI [11]: 75.3 µM | TGI [13]: 23.2 µM | TGI [14]: 54.7 µM | TGI [15]: > 100 µM | TGI [17]: > 100 µM | TGI [20]: > 100 µM | TGI [25]: > 100 µM | TGI [26]: > 100 µM | TGI [27]: > 100 µM | TGI [62]: > 100 µM | TGI [30]: > 100 µM | TGI [31]: > 100 µM | TGI [32]: > 100 µM | TGI [33]: > 100 µM | TGI [34]: 66.8 µM | TGI [35]: > 100 µM | TGI [36]: > 100 µM | TGI [38]: 65.9 µM | TGI [40]: > 100 µM | TGI [42]: 29.9 µM | TGI [43]: > 100 µM | TGI [44]: > 100 µM | TGI [63]: > 100 µM | TGI [45]: > 100 µM | TGI [46]: > 100 µM | TGI [47]: 71.1 µM | TGI [49]: 73.5 µM | TGI [50]: > 100 µM | TGI [64]: > 100 µM | TGI [51]: > 100 µM | TGI [52]: 20.9 µM | TGI [65]: 41.3 µM | TGI [54]: > 100 µM | TGI [55]: > 100 µM | TGI [56]: > 100 µM | TGI [57]: > 100 µM | TGI [58]: > 100 µM | TGI [59]: > 100 µM

COc1nc(N)c(NC2OC(CO)C(O)C2O)c(=O)[nH]1 (stereo not given)
TGI [1]: > 100 µM | TGI [2]: > 100 µM | TGI [3]: > 100 µM | TGI [4]: > 100 µM | TGI [5]: > 100 µM | TGI [6]: > 100 µM | TGI [7]: > 100 µM | TGI [8]: > 100 µM | TGI [9]: > 100 µM | TGI [10]: > 100 µM | TGI [11]: > 100 µM | TGI [12]: > 100 µM | TGI [13]: > 100 µM | TGI [14]: > 100 µM | TGI [15]: > 100 µM | TGI [16]: > 100 µM | TGI [17]: > 100 µM | TGI [18]: > 100 µM | TGI [19]: > 100 µM | TGI [20]: > 100 µM | TGI [21]: > 100 µM | TGI [22]: > 100 µM | TGI [23]: > 100 µM | TGI [24]: > 100 µM | TGI [25]: > 100 µM | TGI [26]: > 100 µM | TGI [27]: > 100 µM | TGI [28]: > 100 µM | TGI [29]: > 100 µM | TGI [30]: > 100 µM | TGI [31]: > 100 µM | TGI [32]: > 100 µM | TGI [33]: > 100 µM | TGI [34]: > 100 µM | TGI [35]: > 100 µM | TGI [36]: > 100 µM | TGI [37]: > 100 µM | TGI [38]: > 100 µM | TGI [39]: > 100 µM | TGI [40]: > 100 µM | TGI [41]: > 100 µM | TGI [42]: > 100 µM | TGI [43]: > 100 µM | TGI [44]: > 100 µM | TGI [45]: > 100 µM | TGI [46]: > 100 µM | TGI [47]: > 100 µM | TGI [48]: > 100 µM | TGI [49]: > 100 µM | TGI [50]: > 100 µM | TGI [51]: > 100 µM | TGI [52]: > 100 µM | TGI [53]: > 100 µM | TGI [54]: > 100 µM | TGI [55]: > 100 µM | TGI [56]: > 100 µM | TGI [57]: > 100 µM | TGI [58]: > 100 µM | TGI [59]: > 100 µM

COC(=O)c1ccc2c(O)c(O)ccc2c1
TGI [1]: 30.8 µM | TGI [2]: 61.2 µM | TGI [3]: 24.2 µM | TGI [4]: 36.6 µM | TGI [5]: 47.7 µM | TGI [6]: 3.29 µM | TGI [7]: 29.3 µM | TGI [8]: 37.2 µM | TGI [9]: 32.9 µM | TGI [10]: 5.43 µM | TGI [11]: 7.06 µM | TGI [12]: > 69.2 µM | TGI [13]: 26.7 µM | TGI [14]: 5.06 µM | TGI [15]: 32 µM | TGI [16]: 48.1 µM | TGI [17]: 13.8 µM | TGI [18]: 17.2 µM | TGI [19]: 33.7 µM | TGI [20]: 25.4 µM | TGI [21]: 12.5 µM | TGI [22]: 11.5 µM | TGI [23]: 53.5 µM | TGI [24]: 42.6 µM | TGI [25]: 42 µM | TGI [26]: 29.6 µM | TGI [27]: 31.4 µM | TGI [28]: 30.1 µM | TGI [29]: 22.7 µM | TGI [30]: 28.3 µM | TGI [31]: 30.9 µM | TGI [32]: 31.4 µM | TGI [33]: 38.7 µM | TGI [34]: 28.1 µM | TGI [35]: 17 µM | TGI [36]: 47.3 µM | TGI [37]: 33.6 µM | TGI [38]: 29.1 µM | TGI [39]: 27.2 µM | TGI [40]: 29.4 µM | TGI [41]: 3.3 µM | TGI [42]: 8.58 µM | TGI [43]: 23 µM | TGI [44]: 36.4 µM | TGI [45]: 25.3 µM | TGI [46]: 31.6 µM | TGI [47]: 36.2 µM | TGI [48]: 15.4 µM | TGI [49]: > 27 µM | TGI [50]: 27.8 µM | TGI [51]: 39.3 µM | TGI [52]: 13.7 µM | TGI [53]: 36.5 µM | TGI [54]: 33.9 µM | TGI [55]: 31 µM | TGI [56]: 34.2 µM | TGI [57]: 27.5 µM | TGI [58]: 27.5 µM | TGI [59]: 46.1 µM
